Here are results for 17 compounds from PubChem BioAssay (NCI).

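Where inhibition never reached the appropriate level, the endpoint shown equals the highest concentration tested. Otherwise, values were interpolated linearly from a five-concentration, 48-hour dose response in 96-well plates. Definition used: TGI = concentration required for complete inhibition of growth.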 Where a SMILES comes first, the peptide text is derived from it. [ ]: non-standard residue; d: D form. The star is where a group is joined. ξ: configuration not given here. ξF = NC(Cc1ccccc1)C(=O)O; Cbz = O=C(OCc1ccccc1)*; Aib = CC(C)(N)C(=O)O

Test in all cases: growth of human tumour cells (NCI), 48 h
For test [1], the system named is BT-549 breast.
In test [2] the test system is CCRF-CEM leukemia.
Test [3] concerns IGROV1 ovarian.
Test [4] concerns K-562 leukemia.
For test [5], the system named is MALME-3M melanoma.
Test [6] concerns MCF7 breast.
Test [7] has as its system PC-3 prostate.
For test [8], the system named is SNB-75 CNS.
Test [9] has as its system TK-10 renal.
For test [10], the system named is SR leukemia.

For `C(=N\OCCc1ccccc1)/c1cccnc1`, the TGI in test [1], in [2], in test [3], in test [4], in test [5] and in test [6] was over 100 µM each time. The TGI in [7], in test [8] and in [9] was over 100 µM in each case.

As to `C[C@@H]1C2=CC[C@@]3(C)C(CCC3[C@H](C)[C@H]3C[C@@]4(C)O[C@@](c5cccnc5)(O3)OC4(C)C)[C@@H]2C2OC2[C@@]12CCC(=O)O2` (stereo partly drawn), the TGI in test [2] is over 100 µM; in [3], over 100 µM; in [4], over 100 µM; in [5] it was 92.7 µM; in test [8] it was over 100 µM; in [10], over 100 µM. In addition, the TGI in [9] was over 100 µM.

In the case of `Cc1cnc2c(c1)C(=O)C1=C(OC(C)(C)CC1O)C2=O` (stereo not drawn), the TGI in test [2] was 51.1 µM; in test [3], 28.9 µM; in test [4], 46.4 µM; in test [5], 27.6 µM; in test [8], 28.5 µM; in [10], over 100 µM. Further, the TGI in [9] is 34.1 µM.

As to `CCCCOCc1cc(CN2CCN(C)CC2)c(O)c2ncccc12`, the TGI in test [2] is 30.2 µM; in test [3], 97.3 µM; in [4] it was over 100 µM; in [5] it was over 100 µM; in [8], over 100 µM; in test [10] it was 33.2 µM. Further, the TGI in test [9] is over 100 µM.

For `CN(C)CCn1c(=O)c2ccc3c4c(nn3CCN(C)C)c3cc([N+](=O)[O-])ccc3n(c1=O)c24`, the TGI amounted to 3.34 µM in test [1]; 0.417 µM in [2]; 4.5 µM in test [3]; 1.12 µM in test [5]; 0.65 µM in test [6]; 0.576 µM in [7]. This compound returned a TGI in test [9] of 2.01 µM.

`CCN(CC)c1ccc2cc(-c3nnc(-c4ccccc4O)o3)c(=O)oc2c1`: the TGI in test [1] is 24.4 µM; in test [2] it was 8.63 µM; in [3], 13.9 µM; in [4] it was over 100 µM; in [5], 33.6 µM; in [6], over 100 µM. In addition, the results for the TGI in [7] and in [10] were 22.4 µM and 33.7 µM, respectively.

With `COc1cc(Nc2nnc3n2S(=O)(=O)c2cc(C)c(Cl)cc2S3)cc(OC)c1`, the TGI in test [1] was 22.1 µM; in test [2], over 100 µM; in test [3], 6.26 µM; in test [4], over 100 µM; in [5], 23.1 µM; in [6], over 100 µM. For the same compound, the TGI is 47 µM in [7] and 81.3 µM in test [9].

In the case of `O=[N+]([O-])/C(C(Cl)=C(Cl)Cl)=C(\Nc1ccccc1)n1nnc2ccccc21`, the TGI was 70.2 µM in test [1]; 65.9 µM in [2]; over 100 µM in [4]; over 100 µM in test [5]; over 100 µM in [6]; over 100 µM in test [7]. Besides, the TGI in [8] was over 100 µM.

On to `COC(=O)C1=CN(C2CCCCC2)C2(c3ccccc3)c3ccccc3C(=O)OC(=O)C12` (stereo not drawn), for which the TGI in [1], in test [2], in [3], in test [4], in test [5] and in [6] was over 100 µM each time. Besides, the TGI in test [7], in test [8] and in [9] was over 100 µM in each case.

Turning to `[O-][N+]1=NC(c2ccccc2)=C1c1ccccc1`, the TGI in test [2], in test [3], in test [4], in [5], in test [6] and in test [7] was over 50 µM throughout. Also, the TGI in test [8] and in test [9] was over 50 µM in each case.

As for `CC1(C)OCC([C@H]2CC23SCCCS3)O1` (stereo partly drawn), the TGI in test [3], in [4], in test [5], in [8], in test [10] and in test [9] was over 100 µM in each case.

Regarding `COC1=CC(=O)c2c(c(COP(=O)(N(C)CCBr)N(C)CCBr)cn2C)C1=O`, the TGI in test [1] was determined as 0.616 µM; in [2], 1.78 µM; in test [3], 3.93 µM; in [5], 0.291 µM; in test [6], 0.671 µM; in test [7], 7.02 µM. For the same compound, the TGI in [8] is 0.442 µM; in test [9], 0.496 µM.

With `COC(=O)C(C)(C)NC(=O)C(Cc1ccccc1)NC(=O)C(C)(C)NC(=O)OCc1ccccc1` (stereo not drawn) (Cbz-[Aib]-[ξF]-[Aib]-OMe), the TGI in test [2], in test [3], in test [4], in test [5], in [6] and in test [7] was over 100 µM in each case. Further, the TGI in test [9] was over 100 µM.

Turning to `O=C(O)CNn1c(SCC(=O)O)nnc(/C=C/c2c(O)ccc3ccccc23)c1=O`, the TGI in test [1] is 63.8 µM; in test [2], 14.9 µM; in [3], 0.962 µM; in test [4], 62.7 µM; in test [5] it was over 100 µM; in [6], over 100 µM. Besides, the TGI was over 100 µM in [7] and 60 µM in [10].

For `Cc1cc(=O)[nH]c(NNC(C#N)c2c(O)ccc3ccccc23)n1` (stereo not drawn), the TGI in test [2] is over 100 µM; in [3], 23.4 µM; in test [4], over 100 µM; in test [5] it was 26.8 µM; in test [8] it was 55.9 µM; in [10], 26.3 µM. In addition, in test [9], the TGI was determined as 65.8 µM.

With `CC1(S)CC2C(CC1Sc1ccccc1)C2(C)C` (stereo not drawn), the TGI in [2], in [3], in test [4], in [5], in [8] and in test [9] was over 100 µM each time.

Take `CCOC(=O)c1c(-c2ccc(Br)cc2)ccn1C`: the TGI in test [1], in [2], in test [3], in test [4], in test [5] and in test [6] was over 10 µM each time. Moreover, the TGI in test [7], in [8] and in test [9] was over 10 µM each time.
